From paper PMC6214985, “Potassium usnate, a water-soluble usnic acid salt, shows enhanced bioavailability and inhibits invasion and metastasis in colorectal cancer” (Scientific Reports, 2018)
Several values for one entry are separate records, joined by “and”; a condition that tells them apart may be missing. Equal entries are not always repeated.

Tests used:
[1] = test system: CAPN1, CDC42, CFL1, IGF1, WASF1, and WASL in Caco2 cells; assay: Cell motility-related gene expression (RT2 profiler PCR / qRT-PCR) in Caco2 cells; assay type: cell-based, human; conditions: same concentration for UA and KU
Method: The RT² Profiler™ PCR Array (330231, SA Biosciences, Qiagen, Courtaboeuf, France) was used to examine the expression patterns of 84 genes involved in human cell motility as previouslydescribed. The manufacturer’s instructions were strictly followed. Gene expression levels were analyzed using the web-based software ‘RT2 Profiler PCR Array Data Analysis version 3.5′. Six cell motility-related genes, including CAPN1, CDC42, CFL1, IGF1, WASF1, and WASL, were selected as candidates.
Quantitative RT-PCR (qRT-PCR) was performed as previously described. Briefly, total RNA ([…]) isolated from UA- or KU-treated Caco2 cells using RNAiso Plus (TaKaRa, Otsu, Shiga 520–2193, Japan) was used to synthesize cDNA using a M-MLV reverse transcriptase kit (Invitrogen, Carlsbad, CA, USA) and SYBR green (Enzynomics, Seoul, Korea). […]

[2] = test system: CT26 cells expressing firefly luciferase (CT26-Fluc); assay: Orthotopic liver metastasis model (CT26-Fluc, intrasplenic injection); assay type: in vivo, BALB/c mice; conditions: 5 or 10 mg/kg intraperitoneal
Method: Five-week-old male BALB/c mice with pathogen-free condition were obtained from Orient Company (Seongnam, Korea). According to the Guiding Principles in the Care and Use of Animals (DHEW publication, NIH 80–23), the handling of animals and all in vivo experiments were performed. The Chonnam National University Medical School Research Institutional Animal Care and Use Committee approved the experimental protocol.
A syngeneic mouse model of colorectal cancer metastasis to the liver was established by infusion of tumor cells into the portal system via intrasplenic injection. […] For optical live imaging in this model, a splenectomy was performed immediately after inoculation of tumor cell, and the firefly luciferase activity was analyzed at several time points with the Xenogen system. […] Weight of tumor was determined by subtracting the average weight of liver of normal mice (n = 4) from the weight of total tumor-bearing liver with addition of the weight of total extrahepatic tumors. […] To evaluate inhibition of tumor growth, mice were analyzed every 7 days with the use of optical imaging. […] Metastatic tumor nodules in the liver with a diameter of >1.0 mm were counted using a microscope, and a metastasis score was assigned based on nodule size as follows: 0 (no gross metastasis), 1 (tumor size >1 mm), and 10 (tumor size >5 mm). […]

[3] = test system: N-cadherin, Snail, Twist, Slug, and ZEB2 mRNA in Caco2 cells; assay: qRT-PCR of EMT markers in Caco2 cells; assay type: cell-based, human; conditions: 5 μM
Method: Quantitative RT-PCR (qRT-PCR) was performed as previously described. Briefly, total RNA ([…]) isolated from UA- or KU-treated Caco2 cells using RNAiso Plus (TaKaRa, Otsu, Shiga 520–2193, Japan) was used to synthesize cDNA using a M-MLV reverse transcriptase kit (Invitrogen, Carlsbad, CA, USA) and SYBR green (Enzynomics, Seoul, Korea). The primers used for real-time PCR were as follows: E-cadherin (forward) 5′-[…]-3′ and (reverse) 5′-[…]-3′; N-cadherin (forward) 5′-[…]-3′ and (reverse) 5′-[…]-3′; Snail (forward) 5′-[…]-3′ and (reverse) 5′-tgggagacacatcggtcga-3′; Twist (forward) 5′-cgggagtccgcagtctta-3′ and (reverse) 5′-[…]-3′; Slug (forward) 5′-[…]-3′ and (reverse) 5′-[…]-3′; ZEB1(forward) 5′-atgacacaggaaaggaagg-3′ and (reverse) 5′-agcagtgtcttgttgtag-3′; ZEB2 (forward) 5′-caagaggcgcaaacaagcc-3′ and (reverse) 5′-[…]-3′; CAPN1 (forward) 5′-[…]-3′ and (reverse) 5′-[…]-3′; CDC42 (forward) 5′-[…]-3′ and (reverse) 5′-[…]-3′; CFL1 (forward) 5′-caaggatgccatcaagaa-3′ and (reverse) 5′-atccttagcctcctcgta-3′; IGF1 (forward) 5′-[…]-3′ and (reverse) 5′-[…]-3′; WASF1 (forward) 5′-[…]-3′ and (reverse) 5′-[…]-3′; WASL (forward) 5′-[…]-3′ and (reverse) 5′-[…]-3′; and GAPDH (forward) 5′-[…]-3′ and (reverse) 5′-[…]-3′. qRT-PCR reactions and analyses were performed using CFX (Bio-Rad, Hercules, CA, USA).

[4] = test system: colorectal cancer cells (HCT116, DLD1, SW480, HT29, SW620, Caco2, COLO320, CT26); assay: Cell viability assay (MTT); assay type: cell-based, human; mouse (CT26); conditions: 48 h, 12.5–100 μM
Method: The human colorectal cancer cell lines HCT116, DLD1, SW480, HT29, SW620, Caco2, and COLO320, and the mouse colorectal cancer cell line CT26, were used in this study. Cells were cultured in DMEM supplemented with 10% fetal bovine serum and 1% Penicillin-Streptomycin solution under a humidified 5% CO2 atmosphere at 37 °C in an incubator.
Colorectal cancer cell growth and survival were detected with the colorimetric quantification of 3-(4,5-dimethylthiazol-2-yl)-2,5-diphenyltetrazolium bromide using the MTT assay. Briefly, cells were seeded and cultured in 96-well plates (2.5 × 10^3 cells/well), and treated with UA or KU for 48 h. After DMSO dissolution, the absorbance at 540 nm was determined using a microplate reader with Gen 5 (2.03.1) software (BioTek Eon, VT, USA).

[5] = test system: Twist, Snail, and Slug protein in Caco2 cells; assay: Western blotting of EMT markers in Caco2 cells; assay type: cell-based, human; conditions: 24 h
Method: Cells treated with UA or KU for 24 h were washed twice with ice-cold PBS and lysed in lysisbuffer. Antibodies against E-cadherin (61018, BD Biosciences, San Diego, CA, USA), N-cadherin (610921, BD Biosciences), Snail/Slug (ab180714, Abcam, Cambridge, MA, USA), Twist (ab49254, Abcam), PARP (9542, Cell Signaling), Caspase-3 (9662, Cell Signaling), α-Tubulin (2125, Cell Signaling), and ZEB2 (HPA003456, Sigma) were detected with horseradish peroxidase-conjugated secondary antibody (Thermo Fisher Scientific, Waltham, MA, USA) with the use of Immobilon Western Chemiluminescent HRP Substrate Kit (Merck Millipore, Billerica, MA, USA) and luminescence imaging (Image Quant LAS 4000 mini). Multi-Gauge 3.0 was used to measure bands, and relative density was calculated based on the density of the α-tubulin bands in each sample. Expression of values were as arbitrary densitometric units corresponding to signal intensity.

[6] = Usnate distribution by LC-MS/MS after oral administration in CT26 syngeneic mouse tumor xenograft model; assay type: in vivo; conditions: 30 mg/kg oral, 16 h after dosing; CT26 xenograft mice
Method: Stock solutions (10 mM) of UA or KU were prepared by dissolution in DMSO. Stock standard solutions were stored at −20 °C. A working standard solution was prepared by dilution of the stock standard solution with a mixture of acetonitrile-water (1:1, v/v). The working standard solution was serially diluted to prepare a concentration series of 0.975, 3.9, 15.6, 62.5, 250, 1000, and 4000 nM in 50% acetonitrile.
Skin tumor xenografts were established using CT26 cells. After 7 days of inoculation and gross tumor formation, UA or KU at 30 mg/kg was administered orally, and tumor, liver, and plasma samples were collected after 16 h (n = 9 each). Mouse tumor and liver samples were homogenized in four volumes of ice-cold deionized water. Plasma and homogenized tissue samples were prepared for analysis in a 96-well cluster tube plate by protein precipitation. A volume of 30 µL of each sample was transferred to eight-well tube strips placed in an 8 × 12 rack (VWR, Emeryville, CA, USA). Four volumes of ice-cold extraction solution (acetonitrile) containing 4-methylumbelliferone (4-MUF, internal standard) were added and vortexed for 10 min. After sonication for 30 min, samples were placed on ice for 1 h. The 96-well cluster tube plate was centrifuged at 1000 × g for 10 min, and the supernatant was analyzed by LC-MS/MS. Standard samples were prepared in the same manner using a blank matrix.
Samples were analyzed with the Prominence UPLC system (Shimadzu, Japan) equipped with an API 3200 QTRAP™ LC-MS/MS system (Applied Biosystems, Foster City, CA, USA). Sample volumes of 10 μL were injected into an Aquity HSS UPLC C18 column (2.5 × 100 mm, 1.8 µm i.d.; Waters, Milford, MA, USA) and maintained at 30 °C. The column was pre-equilibrated in 100% v/v solvent A (deionized water containing 0.1% v/v formic acid)/0% v/v solvent B (acetonitrile containing 0.1% v/v formic acid) at a flow rate of 0.3 mL/min. […] The samples were analyzed via multiple reaction monitoring. […]

[7] = Water solubility by μSol Method; assay type: physicochemical; conditions: 25 °C, pH 7.4, μSol Method with DMSO stock solution
[8] = test system: Caco2, HCT116, and CT26 cells; assay: Cell invasion assay (Boyden chamber); assay type: cell-based, human; mouse (CT26); conditions: 5 μM, 24 h, vs control
Method: Invasion assays were performed in Boyden chambers (Corning, New York, USA)[16]. A 120 μL Cells (2 × 10^6) suspended in medium (DMEM containing 0.2% BSA dissolved in PBS) treated with or without UA or KU were seeded in the upper transwell chamber (Corning, New York, USA) coated with gelatin. Then, fibronectin (10 μg/mL) was added into the lower chamber medium (400 μL) as a chemotactic agent.Then invaded cells adhering to the underneath of upper chamber were fixed and stained with the Diff Quik kit (Sysmex) after 24 h of incubation. The quantitation of the cells were performed under an upright microscope (5 fields/chamber). Each invasion assay was repeated in three independent experiments.

[9] = Hydrolytic stability at pH 4–7; assay type: physicochemical; conditions: pH range of 4–7, room temperature
Method: To determine whether the salt form of UA improved its bioavailability, the amount and concentration of usnate in the tumors, liver, and plasma of CT26 syngeneic tumor xenograft-bearing mice were measured by LC-MS/MS analysis. UA or KU was administered orally at a dose of 30 mg/kg at 7 days after CT26 cell inoculation, and the tumor tissues, liver tissues, and plasma of mice were collected after 16 h. […] Assuming that the density of tumor tissue is 0.1 to 1.0 mL/g, the concentration of usnate in tumor tissue is about 1.51 to 15.1 μM. Similarly, the amounts of usnate detected in liver tissues were 0.2788 ± 0.034 nmol/g of tissue for UA and 2.5789 ± 0.402 nmol/g of tissue for KU administered mice (Fig. 2C); the plasma concentrations of usnate were 0.181 ± 0.016 μM for UA and 1.690 ± 0.122 μM for KU administered mice (Fig. 2D).
Supplementary Figure 3. The stability of UA at the pH range of 4–7 in room temperature. (A) UA stability at pH 7.0. (B) UA stability at pH 6.8. (A) UA stability at pH 6.0. (A) UA stability at pH 4.5

For Usnic acid [UA], the “expression of cell motility-related genes CAPN1, CDC42, CFL1, IGF1, WASF1, and WASL” value [1] was “only CFL1 and IGF1 gene expression levels were decreased”, the “inhibitory effect on metastasis in vivo” value [2] was “no significant inhibitory effect on metastasis” and the metastasis score ([2]; six or ten times within 2 weeks, vs control) was “did not detect a statistically significant difference”. The “mRNA levels of N-cadherin, Snail, Twist, Slug, and ZEB2” value [3] was “significantly decreased”, the “cytotoxic activity (cell viability)” value [4] was “showed cytotoxic activity in all the tested colorectal cancer cells” and the “protein level of Twist, Snail, and Slug” value [5] was “downregulated”. The “amount of usnate in liver tissues” value [6] was 0.2788 ± 0.034 nmol/g of tissue, the “amount of usnate in tumor tissues” value [6] was “undetectable” and the “plasma concentration of usnate” value [6] was 181 ± 16 nM. The water solubility [7] was 52.2 ± 2.90 μM and 17.7 ± 0.20 μg/mL, the “number of invaded cells / invasion” value [8] was “lower in the UA-treated groups than in the control groups” and the hydrolytic stability [9] was “consistent”.
